Results reported in patent publication US20240270759A1, “Preparation of SHP2 phosphatase inhibitors and its applications” (Ya Therapeutics Inc, priority 2021, published 2024).

What follows are compounds tested against T1, SHP2 full-length protein (Homo sapiens, UniProt Q06124) (assay: SHP2 allosteric inhibition experiment (Homogeneous Full Length SHP-2 Assay Kit)). Conditions: full-length SHP2 0.06 nM with SHP-2 activating peptide; ten-point, 1 μM to 0.05 nM; read-out: IC50 Values of Compounds Inhibiting SHP2.
T1 construct: purchased BPS Bioscience #79330
T1 sequence (Q06124 1-593): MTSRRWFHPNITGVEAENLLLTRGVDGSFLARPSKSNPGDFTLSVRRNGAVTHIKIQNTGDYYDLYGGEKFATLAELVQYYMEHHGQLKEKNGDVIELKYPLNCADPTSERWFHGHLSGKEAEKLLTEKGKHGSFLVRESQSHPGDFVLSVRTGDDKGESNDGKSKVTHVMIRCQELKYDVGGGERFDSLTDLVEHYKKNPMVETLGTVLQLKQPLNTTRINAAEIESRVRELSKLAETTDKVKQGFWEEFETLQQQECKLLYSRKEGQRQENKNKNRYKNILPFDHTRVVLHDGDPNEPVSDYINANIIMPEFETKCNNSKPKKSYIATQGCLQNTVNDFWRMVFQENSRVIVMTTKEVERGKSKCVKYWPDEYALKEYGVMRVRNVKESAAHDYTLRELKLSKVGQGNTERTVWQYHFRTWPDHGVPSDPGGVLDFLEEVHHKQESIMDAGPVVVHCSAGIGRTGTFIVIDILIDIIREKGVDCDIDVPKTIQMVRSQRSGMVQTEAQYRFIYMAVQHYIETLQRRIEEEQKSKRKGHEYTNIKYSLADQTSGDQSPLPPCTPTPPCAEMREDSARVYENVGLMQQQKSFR
Type: biochemical
Excerpt: The following further describes and explains the present invention in combination with test examples, but these examples are not meant to limit the scope of the present invention. SHP2 allosteric inhibition experiment
The purpose of this test is to measure the ability of the compounds to inhibit the allosteric activity of the SHP2 full-length protein. Experimental equipment: a centrifuge (5810R) is purchased from Eppendorf Company; pipettes are purchased from Eppendorf Company and Rainin Company, and microplate readers are purchased from BioTek Company of the United States, SynergyH1 multimode microplate reader.
Experimental method: Homogeneous Full Length SHP-2 Assay Kit (BPS Bioscience, #79330) is used to detect SHP2 activity in vitro. First, add 18 μL of Master Mix to 96-well low-adsorption microplate (NUNC, #267342), that is, 0.5 μL of SHP-2 activating Peptide and 5 mM DTT are included in the reaction buffer with a final concentration of 1×. After centrifugation, add 5 μL of the compound to be tested in DMSO (final DMSO content is 1% (V/V) in each well: dissolve the compound to be tested in DMSO to 1 mM, conduct triple dilution with a total of 10 concentration levels ranging from 1 μM to 0.05 nM in the reaction buffer. After diluting SHP2 in 1× reaction buffer to a final concentration of 0.06 nM, add it to the reaction microwell plate, 2 μL per well. Set a full activity control ([…]) and a full inhibition control (without SHP-2) on the reaction plate, and incubate the reaction mixture at room temperature for 60 minutes after centrifugation.
After incubation, add 25 μL of Substrate solution to each well, containing Substrate with a final concentration of 10 μM and DTT with a final concentration of 5 mM, and after centrifugation, continue to incubate at room temperature for 30 minutes. After the reaction, set the excitation wavelength at 340 nm, the emission wavelength at 455 nm, and the gain value to 75 on the Synergy H1 microplate reader (Biotek) for reading.
Take the full activity control and full inhibition control as the values of Max and Min, and calculate the percentage inhibition rate of the wells treated with the compound based on the positive control wells (DMSO control wells) and negative control wells (no kinase added) on the reaction plate, (inhibition rate percentage=100−[(test compound−Min average value)/(Max average value−Min average value)]×100%. IC50 values of test compounds are calculated by fitting percentage of inhibition and ten-point concentration data to a 4-parameter nonlinear logic formula using GraphPad prism.

| Compound | IC50 |
| --- | --- |
| C[C@@H]1OCC2(CCN(c3ncc4nc(Sc5cccc(NC(=O)c6cnccn6)c5Cl)cnc4n3)CC2)[C@@H]1N [Compound 85, N-(3-((2-((3S,4S)-4-amino-3-methyl-2-oxa-8-azaspiro[4.5]decane-8-yl)pteridine-6-yl)mercapto)-2-chlorophenyl)pyrazine-2-carboxamide] | ≤ 0.01 µM |
| C[C@@H]1OCC2(CCN(c3cnc4nc(Sc5cccc(NC(=O)c6c(O)nc7n(c6=O)CCCC7)c5Cl)ccc4n3)CC2)[C@@H]1N [Compound 98, N-(3-((2-((3S,4S)-4-amino-3-methyl-2-oxa-8-azaspiro[4.5]decane-8-yl)pyridinyl[2,3-b]pyrazine-6-yl)mercapto)-2-chlorophenyl)-2-hydroxy-4-oxo-6,7,8,9-tetrahydro-4H-p yridinyl[1,2-a]pyrimidine-3-carboxamide] | ≤ 0.01 µM |
| C[C@@H]1OCC2(CCN(c3cnc4nc(Sc5cccc(NC(=O)c6c(O)nc7n(c6=O)CCCC7)c5Cl)ncc4n3)CC2)[C@@H]1N [Compound 87, N-(3-((6-((3S,4S)-4-amino-3-methyl-2-oxa-8-azaspiro[4.5]decane-8-yl)pteridine-2-yl)mercapto)-2-chlorophenyl)-2-hydroxy-4-oxo-6,7,8,9-tetrahydro-4H-pyridinyl[1,2-a]p yrimidine-3-carboxamide] | ≤ 0.01 µM |
| C[C@@H]1OCC2(CCN(c3ncc(Sc4cccc(NC(=O)c5ccncn5)c4Cl)cn3)CC2)[C@@H]1N [Compound 124, N-(3-((2-((3S,4S)-4-amino-3-methyl-2-oxa-8-azaspiro[4.5]decane-8-yl of 1)pyrimidine-5-yl)mercapto)-2-chlorophenyl)pyrimidine-4-carboxamide] | ≤ 0.01 µM |
| C[C@@H]1OCC2(CCN(c3cnc(Sc4cccc(Nc5ccncn5)c4Cl)nc3)CC2)[C@@H]1N [Compound 110, (3S,4S)-8-(2-((2-chloro-3-(pyrimidine-4-amino)phenyl)mercapto)pyrimidine-5-yl)-3-methyl-2-oxa-8-azaspiro[4.5]decane-4-amine] | 0.01 to 0.1 µM |
| C[C@@H]1OCC2(CCN(c3cnc4nc(Sc5cccc(-c6cccnc6)c5Cl)ncc4n3)CC2)[C@@H]1N [Compound 78] | ≤ 0.01 µM |
| C[C@@H]1OCC2(CCN(c3ncc(Sc4cccc(Nc5ccncn5)c4Cl)cn3)CC2)[C@@H]1N [Compound 122, (3S,4S)-8-(5-((2-chloro-3-(pyrimidine-4-amino)phenyl)mercapto)pyrimidine-2-yl)-3-methyl-2-oxa-8-azaspiro[4.5]decane-4-amine] | ≤ 0.01 µM |
| N[C@@H]1c2cnccc2CC12CCN(c1cnc3c(=O)n(-c4cccc(Cl)c4Cl)c(=O)[nH]c3n1)CC2 [Compound 16, (S)-7-(7-Amino-5,7-dihydrospiro [cyclopenta[c]pyridine-6,4′-piperidine]-1′-yl)-3-(2,3-dichlorophenyl)pteridine-2,4(1H,3H)-dione] | 0.01 to 0.1 µM |
| Nc1nccc(-n2c(=O)[nH]c3cc(N4CCC5(CC4)COCC5N)ccc3c2=O)c1Cl (stereo in doubt) [Compound 3, (S)-3-(2-amino-3-chloropyridine-4-yl)-7-(4-amino-2-oxa-8-azaspiro[4.5]decane-8-yl)q uinazoline-2,4(1H,3H)-dione] | ≤ 0.01 µM |
| N-(3-((5-((3S,4S)-4-amino-3-methyl-2-oxa-8-azaspiro[4.5]decane-8-yl)-1,2,4-triazine-3-yl)mercapto)-2-chlorobenzene)-2-hydroxy-4-oxa-6,7,8,9-tetrahydro-4H-pyridinyl[1,2-a]pyrimidine-3-carboxamide [Compound 138] | ≤ 0.01 µM |
| Nc1nccc(-n2c(=O)[nH]c3nc(N4CCC5(CC4)Cc4ccccc4[C@H]5N)cnc3c2=O)c1Cl [Compound 18, (S)-7-(1-amino-1,3-dihydrospiro[indene-2,4′-piperidine]-1′-yl)-3-(2-amino-3-chloropyridine-4-yl)pteridine-2,4(1H,3H)-dione] | ≤ 0.01 µM |
| N[C@@H]1c2ccncc2CC12CCN(c1ccc3c(=O)n(-c4ccnc(NC5CC5)c4Cl)c(=O)[nH]c3n1)CC2 [Compound 28] | ≤ 0.01 µM |
| C[C@@H]1OCC2(CCN(c3cnc4nc(Sc5cccc(-c6ccn(C)n6)c5Cl)ncc4n3)CC2)[C@@H]1N [Compound 63, (3S,4S)-8-(2-((2-chloro-3-(1-methyl-1H-pyrazole-3-yl)phenyl)mercapto)pteridine-6-y 1)-3-methyl-2-oxa-8-azaspiro[4.5]decane-4-amine] | ≤ 0.01 µM |
| CCn1ccc(-c2cccc(Sc3ncc(N4CCC5(CC4)CO[C@@H](C)[C@H]5N)nn3)c2Cl)n1 [Compound 129, (3S,4S)-8-(3-((2-chloro-3-(1-ethyl-1H-pyrazole-3-yl)phenyl)mercapto)-1,2,4-triazine-6-yl)-3-methyl-2-oxa-8-azaspiro[4.5]decane-4-amine] | ≤ 0.01 µM |
| CCn1ccc(-c2cccc(Sc3cnc(N4CCC5(CC4)CO[C@@H](C)[C@H]5N)nc3)c2Cl)n1 [Compound 112, (3S,4S)-8-(5-((2-chloro-3-(1-ethyl-1H-pyrazole-3-yl)phenyl)mercapto)pyrimidine-2-yl)-3-methyl-2-oxa-8-azaspiro[4.5]decane-4-amine] | 0.01 to 0.1 µM |
| C[C@@H]1OCC2(CCN(c3ncc4nc(Sc5cccc(Oc6ccn(C)n6)c5Cl)cnc4n3)CC2)[C@@H]1N [Compound 93] | ≤ 0.01 µM |
| C[C@@H]1OCC2(CCN(c3ncc(Sc4cccc(-c5cncnc5)c4Cl)cn3)CC2)[C@@H]1N [Compound 115, (3S,4S)-8-(5-((2-chloro-3-(pyrimidine-5-yl)phenyl)mercapto)pyrimidine-2-yl)-3-methyl-2-oxa-8-azaspiro[4.5]decane-4-amine] | ≤ 0.01 µM |
| NC1c2ncccc2CC12CCN(c1ccc3c(=O)n(-c4cccc(Cl)c4Cl)c(=O)[nH]c3c1)CC2 (stereo in doubt) [Compound 8, (S)-7-(7-Amino-5,7-dihydrospiro[cyclopenta[b]pyridine-6,4′-piperidine]-1′-yl)-3-(2,3-dichlorophenyl)quinazoline-2,4(1H,3H)-dione] | ≤ 0.01 µM |
| C[C@@H]1OCC2(CCN(c3cnc(Sc4cccc(Nc5cccnc5)c4Cl)nc3)CC2)[C@@H]1N [Compound 107, (3S,4S)-8-(2-((2-chloro-3-(pyridine-3-amino)phenyl)mercapto)pyrimidine-5-yl)-3-me thyl-2-oxa-8-azaspiro[4.5]decane-4-amine] | 0.01 to 0.1 µM |
| C[C@@H]1OCC2(CCN(c3ncc4nc(Sc5cccc(-c6ccn(C)n6)c5Cl)cnc4n3)CC2)[C@@H]1N [Compound 64, (3S,4S)-8-(6-((2-chloro-3-(1-methyl-1H-pyrazole-3-yl)phenyl)mercapto)pteridine-2-y 1)-3-methyl-2-oxa-8-azaspiro[4.5]decane-4-amine] | ≤ 0.01 µM |
| C[C@@H]1OCC2(CCN(c3cnc4nc(Sc5cccc(-c6ccn(C)n6)c5Cl)ccc4n3)CC2)[C@@H]1N [Compound 92, (3S,4S)-8-(6-((2-chloro-3-(1-methyl-1H-pyrazole-3-yl)phenyl)mercapto)pyridinyl[2,3-b]pyrazine-2-yl)-3-methyl-2-oxa-8-azaspiro[4.5]decane-4-amine] | ≤ 0.01 µM |
| C[C@@H]1OCC2(CCN(c3ccc(Sc4cccc(-c5cnccn5)c4Cl)nn3)CC2)[C@@H]1N [Compound 132, (3S,4S)-8-(3-((2-chloro-3-(pyrazine-2-yl)phenyl)mercapto)pyridazine-6-yl)-3-methyl-2-oxa-8-azaspiro[4.5]decane-4-amine] | ≤ 0.01 µM |
| C[C@@H]1OCC2(CCN(c3cnc(Sc4cccc(-c5cnccn5)c4Cl)nc3)CC2)[C@@H]1N [Compound 104, (3S,4S)-8-(2-((2-chloro-3-(pyrazine-2-yl)phenyl)mercapto)pyrimidine-5-yl)-3-methyl-2-oxa-8-azaspiro[4.5]decane-4-amine] | ≤ 0.01 µM |
